Tests used:
Format in all cases: cell-based
A375 melanoma cells [1] = assay: 3H-cholesterol efflux assay; details: BLT-1 1 μM; acceptors 500 nM
Method: A375 cells were cultured in DMEM containing 1 μCi/mL [1,2,-^3H] cholesterol (Perkin-Elmer) overnight to label the cellular cholesterol pool. Cells were then washed in PBS and resuspended in serum free media. Human HDL or HDL NPs were added to the culture media and allowed to incubate for 6 hours. Cell culture media was then collected and subjected to liquid scintillation counting. The percentage of cholesterol efflux was determined by using the formula counts media/(counts cells+counts media)×100. Efflux of cholesterol in the absence of an acceptor was also measured and interpreted along with other results.

A375 melanoma cells [2] = assay: Exosome uptake assay (DiI-labeled exosomes, flow cytometry / fluorescence microscopy); details: 24 hrs treatment
Method: A375 melanoma exosomes were isolated from conditioned media using differential ultracentrifugation [Thery et al. 2006]. In brief, cells were cultured in exosome deficient media for 72 hours at which point the cell culture media was collected and centrifuged at 2000×g to remove dead cells and debris. Next, larger vesicles and cell debris were removed by centrifugation at 10,000×g for 30 minutes. Exosomes were then pelleted by centrifugation at 100,000×g for 70 minutes, and subsequently washed in PBS by another 100,000×g centrifugation step for 70 minutes. Exosomes were re-suspended in PBS. Protein concentration of exosomes was analyzed by BCA Protein assay (Thermo Scientific). […] In order to test if HDL NPs quenched exosome fluorescence, we incubated HDL NPs with fluorescently labeled exosomes for 4 hours and then measured the fluorescent signal.
The cellular uptake of exosomes was measured by fluorescence microscopy and flow cytometry after cell treatments. […] For fluorescence microscopy experiments, cells were plated on coverslips coated with 0.1% gelatin. Exosome uptake was measured over the course of 24 hours using a BD LSR Fortessa flow cytometer (Robert H. Lurie Comprehensive Cancer Center Flow Cytometry Core) or a Nikon A1R fluorescence microscope (Northwestern University Nikon Imaging Facility).

GFP-SR-B1 = biological target: T1, GFP-SR-B1 (Homo sapiens, UniProt Q8WTV0); assay: GFP-SR-B1 clustering and dynamics (confocal imaging, computer vision analysis); details: A375 cells expressing GFP-SR-B1, 24 hrs treatment
T1 construct: expressed in transfected cells
T1 sequence (Q8WTV0 1-552): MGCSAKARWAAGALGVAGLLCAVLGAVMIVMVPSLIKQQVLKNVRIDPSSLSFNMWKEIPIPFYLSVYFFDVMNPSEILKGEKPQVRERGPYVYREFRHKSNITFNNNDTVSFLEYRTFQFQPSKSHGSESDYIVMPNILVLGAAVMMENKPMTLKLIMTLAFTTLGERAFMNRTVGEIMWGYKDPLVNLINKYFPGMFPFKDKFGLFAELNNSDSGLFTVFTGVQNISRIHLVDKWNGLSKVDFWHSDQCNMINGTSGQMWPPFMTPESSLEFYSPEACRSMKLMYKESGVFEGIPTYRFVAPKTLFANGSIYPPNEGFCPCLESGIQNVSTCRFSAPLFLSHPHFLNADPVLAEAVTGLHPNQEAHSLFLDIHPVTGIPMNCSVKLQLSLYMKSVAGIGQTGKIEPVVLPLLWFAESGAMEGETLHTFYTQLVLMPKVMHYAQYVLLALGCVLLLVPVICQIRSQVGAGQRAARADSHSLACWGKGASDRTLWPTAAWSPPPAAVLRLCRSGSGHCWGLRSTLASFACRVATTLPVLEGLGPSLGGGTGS
Source text: A semi-automated approach using ImageJ software was employed to identify the areas of GFP-SR-B1 in the images. After background subtraction, an unsharp mask filter with a large radius was applied to locally enhance contrast. Manual thresholding of filtered images was then used to generate a segment mask, which could be overlaid on the original, background subtracted image to facilitate measurement of domain parameters such as area and mean intensity. […]
To calculate the linearity of the motion, we introduced a parameter rho (FIG. 3C), which is calculated as the ratio between the head-to-tail (first point to the end point) trajectory distance divided by the total distance traveled by fluorescent domains. […]
Fluorescence microscopy was performed using an A1R confocal microscope with assistance from the Northwestern University Center for Advanced Microscopy. Images were analyzed using NIS Elements (Nikon) and ImageJ (NIH) software. Live cell confocal fluorescence microscopy to assess lipid raft dynamics was performed with a Nikon Eclipse T1 microscope equipped with an Andor iXon Ultra 897 camera and analyzed using Metamorph software (Molecular Devices).

## CCCCCCC1CCCC1=NNC(N)=S (stereo not drawn) [BLT-1, Blocks Lipid Transport 1]
A375 melanoma cells [1]
  3H-cholesterol efflux to hHDL and HDL NP with BLT-1 treatment: reduced efflux to both hHDLs and HDL NPs
A375 melanoma cells [2]
  inhibition of cellular exosome uptake: did not result in the inhibition of exosome uptake
GFP-SR-B1
  clustering of GFP-SR-B1: did not result in the inhibition of exosome uptake or clustering of the receptor

— patent publication US10413565B2, “Nanostructures for modulating intercellular communication and uses thereof” (Northwestern University, priority 2014, dated 2019)
